Measurements: publication PMC4398321, “Epoxide based inhibitors of the hepatitis C virus non-structural 2 autoprotease” (Antiviral Research, 2015)

Assays:
[1] = molecular target: T1, JFH1 NS2–3 (NS2 autoprotease) (Hepatitis C virus genotype 2a, UniProt Q99IB8); assay: NS2–3 auto-processing (refolding) assay, JFH1; assay type: biochemical, Hepatitis C virus genotype 2a isolate JFH1; settings: for EC50: JFH1 NS2–3 refolding reaction, 10-point dose response, NS3-FLAG product quantified by western blot
T1 construct: (JFH1 polyprotein residues 906–1209, J4 residues 904–1206); His tag (N); made in house; host or cells: E. coli BL21 (DE3) pLysS, pET23a
T1 sequence (Q99IB8 906-1209): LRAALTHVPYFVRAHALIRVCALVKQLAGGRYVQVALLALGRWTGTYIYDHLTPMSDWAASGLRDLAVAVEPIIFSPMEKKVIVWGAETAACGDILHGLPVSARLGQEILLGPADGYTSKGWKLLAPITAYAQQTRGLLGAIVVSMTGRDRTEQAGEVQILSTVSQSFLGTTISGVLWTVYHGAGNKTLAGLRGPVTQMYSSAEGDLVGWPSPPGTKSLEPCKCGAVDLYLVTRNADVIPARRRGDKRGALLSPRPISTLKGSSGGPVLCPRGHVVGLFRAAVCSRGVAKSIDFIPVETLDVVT
Protocol: NS2–3 at 20 μM in 6 M GdnHCl was diluted 1:100 into Refolding buffer (30% glycerol, 0.5% CHAPS, 250 mM NaCl, 3 mM cysteine, 50 μM ZnCl2, 10 mM DTT, 50 mM HEPES–NaOH, pH 7.0) and incubated 16 h RT. Compounds (133 × final concentration in DMSO) were diluted into Refolding buffer before the addition of NS2–3 to yield required final concentrations. Reactions were halted by the addition of ¼ volume 4 × Laemmli buffer (200 mM Tris–HCl pH 6.8, 40% glycerol, 8% SDS, 0.08% bromophenol blue, 20 mM DTT) and analysed by 15% SDS–PAGE and western blot using M2 anti-FLAG monoclonal antibody (Sigma Aldrich) followed by IRDye 680RD Donkey anti-Mouse secondary (LI-COR Biosciences). Imaging and analysis was performed using Odyssey imager (LI-COR Biosciences). Intensity of the 20 kDa proteolysis product (NS3-FLAG) was quantified to calculate 50% effective concentration (EC50) using Prism 6 (GraphPad).
To assess the ability of a small molecule to inhibit NS2 protease activity, an in vitro auto-processing assay was employed. A NS2–NS3 precursor protein (NS2–3) comprising the catalytic C-terminal domain of NS2 and the N-terminal protease domain of NS3 (JFH1 polyprotein residues 906–1209, J4 residues 904–1206) flanked by an N-terminal His tag and C-terminal FLAG tag was bacterially expressed and purified from inclusion bodies under denaturing conditions by immobilised metal ion affinity chromatography (IMAC). Upon dilution into Refolding buffer, NS2–3 forms significant secondary structure ([Foster et al., 2010]) allowing the autoprotease to become active. This can be monitored by western blot analysis of NS2–3 refolding reactions with an anti-FLAG antibody to reveal 35 kDa precursor NS2–3-FLAG and 20 kDa NS3-FLAG, one of the proteolysis products. Quantification of the proteolysis product was used as a relative measure of NS2 autoprotease activity.

[2] = molecular target: T1, JFH1 NS2–3 (NS2 autoprotease); design: method as in Pieroni et al., 1997; Thibeault et al., 2001; settings: ref Pieroni et al., 1997; Thibeault et al., 2001; cited from earlier work
Huh7 cells = assay: Cell viability endpoint assay (Thiazolyl Blue Tetrazolium Bromide); assay type: cell-based; settings: 72 h incubation, 11-point dose response
Protocol: (§1) Cellular metabolism was quantified by 2 h incubation in 1 mM Thiazolyl Blue Tetrazolium Bromide (Sigma Aldrich) before crystals were suspended in 100 μl DMSO and absorbance at 570 nm measured using an infinite F50 platereader (Tecan). Data was normalised to DMSO control. CC50 was calculated using Prism 6 (GraphPad).
(§2) In other systems, the requirement of epoxide-based inhibitors to form a transient interaction with the protease before becoming covalently linked allows them greater selectivity and makes them more amenable to in vivo applications ([Powers et al., 2002]). To explore the potential for bis-amido based epoxide warheads to exert an inhibitory effect within a HCV model system, compounds 1–10 and cerulenin were tested for cytotoxic effects by calculating CC50 from 72 h incubation in a hepatoma cell line capable of supporting HCV replication (Supplementary Fig. 2). Of the compounds showing significant activity in vitro only 1 and 7 exerted no significant cytotoxicity up to 100 μM (Table 1).

[3] = as above; assay type: cell-based; settings: human, Huh7 cells (hepatoma cell line); 72 h incubation, 11-point dose response
Protocol: as §1, §2

SGR-JFH1-NS3-5B = assay: SGR firefly luciferase assay, NS2-independent JFH1 replicon; assay type: cell-based, Hepatitis C virus genotype 2a isolate JFH1; settings: Telaprevir 150 nM, 48 h
Protocol: (§3) Stable cell lines harbouring SGR (Supplementary material) were maintained in Dulbecco’s modified Eagle’s medium (DMEM; Sigma) supplemented with 10% foetal bovine serum (FBS), 100 IU penicillin ml^−1, 100 μg streptomycin ml^−1, 1% non-essential amino acids and 300 μg/ml G418 (Sigma) in a humidified incubator at 37 °C in 5% CO2. Cells were seeded at a density of 2 × 10^4 cells/well in a 96 well plate. After 16 h media was removed and replaced with media supplemented with the indicated concentrations of compounds with standard DMSO at 0.25%. Plates were incubated in the absence of G418 for a further 48 h.
(§4) Luciferase activity was quantified by addition of 30 μl Passive Lysis Buffer (PLB: Promega) and addition of 40 μl LarI reagent (Promega) using a BMG Labtech plate reader with light emission recorded over 6 s. Data was normalised to DMSO control. Statistical significance was determined using the Student’s t test. […]
(§5) Constructs for HCV SGRs of the genotype 1b Con1 (BM4-5) and genotype 2a JFH1 isolates containing a firefly luciferase – neomycin phosphotransferase fusion protein (ffLuc - NPT) have been previously reported (Wyles et al., 2009, Wyles et al., 2007), into which the relevant NS2 coding sequence was introduced. […] Transcripts were purified by phenol/chloroform extraction and quantified by absorbance at 260 nm. […]

SGR-JFH1-NS2-5B = assay: SGR firefly luciferase assay, NS2-dependent JFH1 replicon; assay type: cell-based, Hepatitis C virus genotype 2a isolate JFH1; settings: Telaprevir 150 nM, 48 h
Protocol: as §3, §4, §5

[4] = test system: SGR-JFH1-NS2-5B cell line; assay: Cellular metabolism of SGR-JFH1-NS2-5B cell line; assay type: cell-based; settings: Telaprevir 150 nM, 48 h
Protocol: as §3, §1

[5] = test system: SGR-JFH1-NS3-5B cell line; assay: Cellular metabolism of SGR-JFH1-NS3-5B cell line; assay type: cell-based; settings: Telaprevir 150 nM, 48 h
Protocol: as §3, §1

Compound: CC(C)C[C@H](NC(=O)[C@H]1O[C@@H]1C(=O)O)C(=O)NCCCCN=C(N)N [Compound E64]
- Inhibition of NS2 autoprotease ([1]; E64 300 μM): not inhibited
- Activity against the NS2 autoprotease [2]: inactive

Compound: O=C(O)CN(CCN(CC(=O)O)CC(=O)O)CC(=O)O [EDTA]
- Inhibition of NS2 autoprotease activity ([1]; EDTA 10 mM): inhibited

Compound: Cc1ccc(S(=O)(=O)N[C@@H](Cc2ccccc2)C(=O)CCl)cc1 [TPCK, Tosyl phenylalanine chloromethyl ketone]
- EC50 [1]: 15.3 µM
- CC50 (Huh7 cells): 3.3 µM

Compound: C/C=C/C/C=C/CCC(=O)[C@H]1O[C@H]1C(N)=O [Cerulenin]
- EC50 [1]: > 300 µM
- Activity against the NS2 autoprotease (in words) ([1]; JFH1 NS2–3 refolding, dose response): no activity
- CC50 at 72 h [3]: 31.9 µM

Compound: CCC[C@H](NC(=O)[C@@H]1[C@H]2CCC[C@H]2CN1C(=O)[C@@H](NC(=O)[C@@H](NC(=O)c1cnccn1)C1CCCCC1)C(C)(C)C)C(=O)C(=O)NC1CC1 [Telaprevir]
- Luciferase activity (SGR-JFH1-NS3-5B): comparable reduction
- Luciferase activity (SGR-JFH1-NS2-5B): comparable reduction
- Cellular metabolism [4]: no effect
- Cellular metabolism [5]: no effect
